Results: paper PMC5469758, “Identification of an in vivo orally active dual-binding protein-protein interaction inhibitor targeting TNFα through combined in silico/in vitro/in vivo screening” (Scientific Reports, 2017)

Tests used:
[1] = system: human TNFα induced apoptosis on the L929 cell line; assay: Neutralization of human TNFα induced apoptosis in L929 cells (MTT); assay type: cell-based; conditions: L929 cells
Method: 80% confluent L929 cells were plated in flat bottom plates at 4 × 10^5 cells per well in 100 μl of DMEM medium containing 10% FBS, 2 mM L-Glutamine, 100 U/ml Penicillin − 100 μg/ml Streptomycin and incubated for one night at 37 °C, 5% CO2. TNFα or TNFβ (150 pg/ml), Actinomycin D (4 μg/ml) and the compounds at different concentrations (ranging from 100 μM to 0.8 μM) were mixed in 150 μl DMEM medium 1% FBS, 2 mM L-Glutamine, 100 U/ml Penicillin−100 μg/ml Streptomycin in U-bottom plates. After two hours incubation at 37 °C, 5% CO2, 100 μl of the mix was added to the plated cells and incubated at 37 °C, 5% CO2 for 24 hours. Supernatants were discarded and 100 μl of MTT at 0.5 mg/ml were added to wells. After two hours, supernatants were discarded and 200 μl of DMSO were then added. Plates were read at 570 nm with a spectrophotometer providing the optical density (OD) of each well. The percentage of neutralization of TNFα by a compound was calculated using equation 3:3 %Neutra=ODcompound−ODTNFα/ODcells−ODTNFα×100
An IC50 could be computed from the percentage of neutralization for each compound.

[2] = system: TNFα induced NF-κB activation in HEK cells; assay: HEK-Blue TNFα NF-κB secreted embryonic alkaline phosphatase reporter assay; assay type: cell-based, human; conditions: HEK cells
Method: 80% confluent HEK-Blue™ TNFα were plated in flat bottom plates at 5 × 10^4 per well in 100 μl of DMEM containing 2 mM L-Glutamine, 100 U/ml Penicillin − 100 μg/ml Streptomycin and incubated at 37 °C, 5% CO2. Serial dilutions of compounds (ranging from 100 μM to 0.8 μM) were mixed with 400 pg/ml of human TNFα in DMEM containing 2% of FBS, 2 mM L-Glutamine, 100 U/ml Penicillin−100 μg/ml Streptomycin in U-bottom plates. After two hours of incubation at 37 °C, 5% CO2, 100 μl of the mix was added to the plated cells and incubated 24 hours at 37 °C, 5% CO2. 20 μl of supernatants were incubated for 3 hours with 180 μl of QUANTI-Blue™ to reveal secretion of phosphatase alcaline and plates were read at 620 nm with a spectrophotometer providing the optical density (OD).

TNFα = conditions: fluorescence binding assay; cited from earlier work
TNFα/TNFRI = system: TNFα/TNFRI; parameters: method as in PMID 16284179; conditions: cited from earlier work
[3] = parameters: method as in PMID 25160057; conditions: cited from earlier work
Balb/C mice = assay: LPS/D-Galactosamine induced lethal shock (TNFα-dependent hepatic shock model); assay type: in vivo; conditions: livers eight hours after LPS/D-Galactosamine
Method: 7 weeks-old Balb/C mice were force-fed with 100 μl of a solution of DMSO containing various doses of compound 1 (5 mg down to 0.5 mg) eight hours before receiving an intraperitoneal injection of 200 μl of PBS containing 0.1 μg of LPS and 20 mg of D-Galactosamine. A control group (DMSO) was force-fed with 100 μl of a solution of DMSO alone eight hours before to be injected with 200 μl of LPS/D-Galactosamine solution. Mice survival was monitored for 48 hours after the injection of LPS/D-Galactosamine.
7 weeks-old Balb/C mice were forced-fed with a solution of DMSO containing 5 mg of compound 1 eight hours before receiving an intraperitoneal injection of 200 μl of PBS containing 0.1 μg of LPS and 20 mg of D-Galactosamine. Eight hours after LPS/D-Galactosamine injection, mice were sacrificed by cervical dislocation and livers were harvested, fixed in 4% formalin and embedded in paraffin. […] Slides were scanned with a slide scanner (Perkin Elmer) and analyzed with Pannoramic viewer (3D HISTECH).
7 weeks-old Balb/C mice were forced-fed with a solution of DMSO containing 5 mg of compound 1 eight hours before receiving an intraperitoneal injection of 200 μl of PBS containing 0.1 μg of LPS and 20 mg of D-Galactosamine. Three hours after LPS/D-Galactosamine injection, mice were anesthetized with ketamine/xylazine to recover blood by cardiac puncture. Sera were kept at −80 °C until assay.
TNFα in serum was quantified using U-CyTech biosciences kits (Utrecht, The Netherlands) according to manufacturer’s procedures.
7 weeks-old Balb/C mice were forced-fed with a solution of DMSO containing 5 mg of compound 1 eight hours before receiving an intraperitoneal injection of 200 μl of PBS containing 0.1 μg of LPS and 20 mg of D-Galactosamine. Eight hours after, mice were anesthetized by an injection of ketamine/xylazine to recover blood by cardiac puncture. Sera were kept at −80 °C until assay. Quantification of AST/ALT was performed using Architec ci 8200 analyser (Abbott) with reagent kits from Abbott.

Compound | concentration above which no cells survived (cellular toxicity) [1] | concentration above which no cells survived (cellular toxicity) [2] | Kd (TNFα) | IC50 (TNFα/TNFRI) | toxicity precluding in vivo use [3] | expression of cleaved caspase 3 in liver (immunohistochemistry) (Balb/C mice) | liver damage and hemorrhage (H&E histopathology) (Balb/C mice)
Cc1cc2occ(CN(C)CCN(C)Cc3cn(-c4cccc(C(F)(F)F)c4)c4ccccc34)c(=O)c2cc1C [SPD304] | more than 30 µM | more than 10 µM | 5.4 ± 0.2 µM | 22 µM | high toxicity |  | 
etanercept |  |  |  |  |  | reduced expression of cleaved caspase 3 | reduced liver damage and hemorrhage
